Measured values published in the CheMixHub viscosity set.

Assay: xn = mol fraction of the nth substance listed

[Li+].[O-][Cl+3]([O-])([O-])[O-] + C1COCO1
101 kPa, x1 = 0.07
Settings | viscosity [mPa·s]
303.15 K | 1
308.15 K | 0.93
313.15 K | 0.89
318.15 K | 0.85
323.15 K | 0.81

Cc1cccc([N+](=O)[O-])c1 + CC1CCCCC1
303.15 K, 101.33 kPa
Settings | viscosity [mPa·s]
x1 = 0.202 | 0.77
x1 = 0.4 | 0.89
x1 = 0.6 | 1.09
x1 = 0.799 | 1.43

C=C(C)C(=O)OCC + CC#N
viscosity [mPa·s], 101 kPa
Settings | 298.15 K | 303.15 K | 308.15 K | 313.15 K | 318.15 K
x2 = 0.0556 | 0.6285 | 0.5725 | 0.5246 | 0.4857 | 0.4542
x2 = 0.1112 | 0.6154 | 0.562 | 0.5162 | 0.479 | 0.4489
x2 = 0.1631 | 0.6027 | 0.5516 | 0.5079 | 0.4722 | 0.4433
x2 = 0.2147 | 0.5894 | 0.5408 | 0.499 | 0.4649 | 0.4372
x2 = 0.2795 | 0.5723 | 0.5266 | 0.4872 | 0.455 | 0.4287
x2 = 0.3446 | 0.5545 | 0.5115 | 0.4746 | 0.4443 | 0.4194
x2 = 0.4132 | 0.5349 | 0.495 | 0.4606 | 0.4322 | 0.4088
x2 = 0.4819 | 0.5147 | 0.4777 | 0.4458 | 0.4194 | 0.3974
x2 = 0.5597 | 0.4911 | 0.4574 | 0.4283 | 0.404 | 0.3836
x2 = 0.6375 | 0.4667 | 0.4364 | 0.41 | 0.3878 | 0.3689
x2 = 0.7251 | 0.4385 | 0.4119 | 0.3885 | 0.3686 | 0.3515
x2 = 0.8113 | 0.4101 | 0.387 | 0.3666 | 0.349 | 0.3334
x2 = 0.9014 | 0.3798 | 0.3604 | 0.343 | 0.3277 | 0.3137
x2 = 0.9542 | 0.3618 | 0.3445 | 0.3289 | 0.3148 | 0.3018

CCOC(=O)c1ccccc1 + CC#N
viscosity [mPa·s], 101.33 kPa
Settings | x1 = 0.129 | x1 = 0.25 | x1 = 0.362 | x1 = 0.469 | x1 = 0.571 | x1 = 0.657 | x1 = 0.756 | x1 = 0.832 | x1 = 0.914
293.15 K | 0.465 | 0.496 | 0.554 | 0.627 | 0.714 | 0.843 | 1.056 | 1.362 | 1.764
303.15 K | 0.416 | 0.444 | 0.495 | 0.551 | 0.621 | 0.721 | 0.897 | 1.12 | 1.418
313.15 K | 0.378 | 0.403 | 0.443 | 0.491 | 0.549 | 0.631 | 0.764 | 0.939 | 1.161
323.15 K | 0.34 | 0.362 | 0.397 | 0.436 | 0.485 | 0.55 | 0.659 | 0.799 | 0.972

[Li+].[O-][Cl+3]([O-])([O-])[O-] + CC#N
viscosity [mPa·s], 101 kPa
Settings | x1 = 0.0128 | x1 = 0.0255 | x1 = 0.0301 | x1 = 0.536
296.15 K | 0.444 | – | – | 0.66
297.15 K | – | 0.53 | – | –
313.15 K | 0.399 | 0.473 | 0.958 | 0.628

CCOC(=O)c1ccccc1 + CC(=O)CC(C)C
viscosity [mPa·s], 101.33 kPa
Settings | 293.15 K | 303.15 K
x2 = 0.0752 | 1.89 | 1.55
x2 = 0.1491 | 1.675 | 1.376
x2 = 0.2022 | 1.58 | 1.303
x2 = 0.3364 | 1.375 | 1.15
x2 = 0.4004 | 1.277 | 1.079
x2 = 0.5355 | 1.109 | 0.94
x2 = 0.6213 | 0.988 | 0.85
x2 = 0.7165 | 0.88 | 0.757
x2 = 0.7942 | 0.797 | 0.69
x2 = 0.8805 | 0.719 | 0.625
x2 = 0.9154 | 0.686 | 0.599
x2 = 0.9549 | 0.648 | 0.569

CNS(C)(=O)=O + CC(=O)N(C)C
303.15 K, 101.33 kPa
Settings | viscosity [mPa·s]
x1 = 0.1009 | 1.104
x1 = 0.2022 | 1.473
x1 = 0.2303 | 1.578
x1 = 0.4082 | 2.571
x1 = 0.4802 | 3.127
x1 = 0.6009 | 4.202
x1 = 0.7019 | 5.204
x1 = 0.7958 | 6.184
x1 = 0.8966 | 7.185

CCOC(=O)c1ccccc1 + CC(=O)O
298.15 K, 101 kPa
Settings | viscosity [mPa·s]
x2 = 0.1041 | 1.948
x2 = 0.2129 | 1.874
x2 = 0.3045 | 1.797
x2 = 0.3882 | 1.727
x2 = 0.475 | 1.651
x2 = 0.5822 | 1.538
x2 = 0.6826 | 1.446
x2 = 0.7956 | 1.322
x2 = 0.9132 | 1.202

CCCCCl + CC(C)(C)O
viscosity [mPa·s], 101 kPa
Settings | x1 = 0.1052 | x1 = 0.2087 | x1 = 0.315 | x1 = 0.4159 | x1 = 0.5172 | x1 = 0.6059 | x1 = 0.7101 | x1 = 0.8039 | x1 = 0.8976
298.15 K | 2.188 | 1.359 | 0.991 | 0.7867 | 0.6596 | 0.582 | – | 0.4746 | 0.4434
313.15 K | 1.279 | 0.9194 | 0.7181 | 0.5981 | 0.5189 | – | 0.4243 | 0.3963 | 0.377

CC1CCCCC1 + CC(C)CC(C)(C)C
viscosity [mPa·s], 101 kPa
Settings | 298.15 K | 303.15 K | 308.15 K
x1 = 0.1032 | – | 0.462 | –
x1 = 0.105 | – | 0.466 | 0.438
x1 = 0.201 | – | 0.478 | –
x1 = 0.221 | – | 0.4798 | –
x1 = 0.3024 | 0.522 | 0.492 | 0.462
x1 = 0.399 | – | 0.5062 | –
x1 = 0.4039 | 0.539 | 0.508 | 0.476
x1 = 0.4974 | – | 0.524 | –
x1 = 0.4998 | 0.556 | 0.523 | 0.491
x1 = 0.5998 | – | 0.5431 | –
x1 = 0.6064 | 0.577 | 0.543 | 0.509
x1 = 0.6991 | 0.597 | 0.562 | 0.526
x1 = 0.7018 | – | 0.5656 | –
x1 = 0.8004 | 0.62 | 0.583 | 0.546
x1 = 0.8012 | – | 0.5892 | –
x1 = 0.8991 | – | 0.6154 | –
x1 = 0.9007 | 0.648 | 0.608 | 0.568
